Reference: PMC8058733, “A pain killer without analgesic tolerance designed by co-targeting PSD-95-nNOS interaction and α2-containning GABAARs” (Theranostics, 2021)

Legend:
α1β2γ2 GABAARs = biological target: T1, α1β2γ2 GABAARs (Homo sapiens, UniProt P14867+P18507+P47870); assay: Potentiation of GABA-evoked currents, whole-cell patch-clamp in HEK293 cells transiently expressing recombinant GABAARs; format: cell-based; details: α1β2γ2
T1 construct: Shanghai Genechem Co.,Ltd (γ2 plasmid); host or cells: HEK293
T1 sequence (P14867 28-456): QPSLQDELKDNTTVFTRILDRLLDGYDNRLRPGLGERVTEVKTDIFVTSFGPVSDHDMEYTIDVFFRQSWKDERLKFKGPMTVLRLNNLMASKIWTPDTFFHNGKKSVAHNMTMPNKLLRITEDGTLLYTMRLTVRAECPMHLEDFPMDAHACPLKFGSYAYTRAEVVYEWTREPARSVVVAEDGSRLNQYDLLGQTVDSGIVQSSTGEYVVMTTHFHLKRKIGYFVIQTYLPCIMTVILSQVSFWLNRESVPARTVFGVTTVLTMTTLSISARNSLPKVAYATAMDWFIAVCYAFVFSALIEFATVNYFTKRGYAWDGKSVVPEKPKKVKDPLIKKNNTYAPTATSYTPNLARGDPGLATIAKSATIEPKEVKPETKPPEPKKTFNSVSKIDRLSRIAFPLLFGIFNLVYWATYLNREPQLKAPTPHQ
T1 sequence (P47870 25-512 limits assumed): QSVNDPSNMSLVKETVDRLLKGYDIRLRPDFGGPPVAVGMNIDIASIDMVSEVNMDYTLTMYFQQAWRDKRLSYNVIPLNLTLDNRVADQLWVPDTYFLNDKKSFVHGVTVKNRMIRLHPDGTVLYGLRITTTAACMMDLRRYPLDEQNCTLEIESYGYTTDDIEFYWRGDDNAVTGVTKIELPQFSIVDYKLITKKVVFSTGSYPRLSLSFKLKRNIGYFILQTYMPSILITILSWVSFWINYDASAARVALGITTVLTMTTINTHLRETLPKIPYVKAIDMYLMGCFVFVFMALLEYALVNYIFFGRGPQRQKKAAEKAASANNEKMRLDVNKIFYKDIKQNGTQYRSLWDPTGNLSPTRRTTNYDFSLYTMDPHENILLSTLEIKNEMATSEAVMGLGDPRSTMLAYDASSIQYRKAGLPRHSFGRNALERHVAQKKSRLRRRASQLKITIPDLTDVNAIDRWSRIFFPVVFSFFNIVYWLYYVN
T1 sequence (P18507 40-475): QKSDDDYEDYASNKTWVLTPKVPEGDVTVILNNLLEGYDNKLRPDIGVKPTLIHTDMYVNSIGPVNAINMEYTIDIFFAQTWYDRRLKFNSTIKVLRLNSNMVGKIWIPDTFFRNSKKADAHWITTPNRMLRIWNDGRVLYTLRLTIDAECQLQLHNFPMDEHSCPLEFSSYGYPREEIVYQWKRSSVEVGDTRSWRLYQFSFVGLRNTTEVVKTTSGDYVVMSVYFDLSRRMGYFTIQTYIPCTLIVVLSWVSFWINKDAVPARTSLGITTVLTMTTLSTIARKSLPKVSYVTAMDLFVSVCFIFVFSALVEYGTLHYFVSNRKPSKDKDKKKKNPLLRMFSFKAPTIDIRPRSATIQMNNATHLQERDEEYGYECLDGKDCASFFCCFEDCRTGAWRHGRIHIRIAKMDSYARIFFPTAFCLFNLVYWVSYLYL
Procedure: (§1) The affinities of drugs for α1, α2, α3 and α5 subunits were studied in the HEK293 cells (from FuHeng Biology, Shanghai, China) transiently expressing recombinant GABAARs (α1β2γ2, α2β3γ2, α3β3γ2 and α5β2γ2) as described previously. Briefly, the HEK293 cells were cultured in MEM medium supplemented with 10% FBS (fetal bovine serum, Gibico), 1% L-glutamine (Gibco) and 1% mycillin (Gibco). Before transfection, the cells were subcultured onto a 3.5cm dish at the ratio of 1:2. Then, the plasmids of α1/α2/α3/α5 (Origene), β2/β3 (Origene) and γ2 (Shanghai Genechem Co.,Ltd ) (5μg total DNA, ratio 1:1:2) were transfected using Fugene®HD transfection reagent (Promega). The γ2 subunit contained GFP from IRES (internal ribosomal entry site) and was used as a marker of the successful transfection. Cells were used for electrophysiology recording 18-36 hours after transfection.
(§2) Electrophysiology recordings from HEK293 cells were performed as described previously. Briefly, whole-cell patch-clamp recordings of GABA-evoked currents were made at 30 °C with the holding potential of -60 mV. The internal solution (solution in recording electrodes) contained (in mM): 120 CsCl, 10 EGTA, 10 HEPES, 4 MgCl2, 0.5 GTP, 2 ATP and pH was adjusted to 7.4 with CsOH and the external solution contained (in mM): 150 NaCl, 10 KCl, 2 CaCl2, 1 MgCl, 10 HEPES, 10 Glucose and pH was adjusted to 7.4 with NaOH. ACSF was bubbled continuously with carbogen (95%O2 and 5%CO2). For the recording of GABA-evoked currents, the slides were transferred to a recording chamber, which was perfused with ACSF at a rate of 4 ml/min. The cells were viewed under upright microscopy (Olympus), and GFP-positive cells were selected to record the currents. The interval time between each different dose of GABA was controlled, 3 to 5 minutes to avoid the desensitization of GABAARs.

α2β3γ2 GABAARs = biological target: T2, α2β3γ2 GABAARs (Homo sapiens, UniProt P18507+P28472+P47869); assay: as above; format: cell-based; details: α2β3γ2, n = 8
T2 construct: Shanghai Genechem Co.,Ltd (γ2 plasmid); host or cells: HEK293
T2 sequence (P47869 29-451): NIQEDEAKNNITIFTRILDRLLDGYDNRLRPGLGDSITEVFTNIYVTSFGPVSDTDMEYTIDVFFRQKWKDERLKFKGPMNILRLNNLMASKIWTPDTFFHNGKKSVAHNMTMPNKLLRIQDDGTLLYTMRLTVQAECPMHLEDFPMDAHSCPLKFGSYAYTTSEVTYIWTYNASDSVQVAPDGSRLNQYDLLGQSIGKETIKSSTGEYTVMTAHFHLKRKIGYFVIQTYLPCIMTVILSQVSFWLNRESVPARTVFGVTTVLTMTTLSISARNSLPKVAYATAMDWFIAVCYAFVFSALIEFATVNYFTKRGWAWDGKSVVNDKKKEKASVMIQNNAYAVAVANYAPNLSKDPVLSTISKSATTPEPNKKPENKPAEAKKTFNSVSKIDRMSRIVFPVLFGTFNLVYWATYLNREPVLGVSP
T2 sequence (P28472 26-473): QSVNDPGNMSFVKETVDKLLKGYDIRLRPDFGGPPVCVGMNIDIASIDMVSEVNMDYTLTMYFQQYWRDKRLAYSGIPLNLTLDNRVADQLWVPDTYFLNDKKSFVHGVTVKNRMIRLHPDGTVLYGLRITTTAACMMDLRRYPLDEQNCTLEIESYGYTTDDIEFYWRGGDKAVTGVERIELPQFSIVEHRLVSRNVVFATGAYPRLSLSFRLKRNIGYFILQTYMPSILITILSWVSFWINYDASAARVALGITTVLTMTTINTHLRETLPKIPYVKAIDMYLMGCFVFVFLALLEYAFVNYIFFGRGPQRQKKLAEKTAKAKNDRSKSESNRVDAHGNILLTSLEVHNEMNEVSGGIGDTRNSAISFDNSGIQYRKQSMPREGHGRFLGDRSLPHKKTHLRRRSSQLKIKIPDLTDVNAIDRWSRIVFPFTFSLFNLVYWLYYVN
T2 sequence (P18507 40-475): as the sequence (P18507 40-475) above
Procedure: as §1, §2

α3β3γ2 GABAARs = biological target: T3, α3β3γ2 GABAARs (Homo sapiens, UniProt P18507+P28472+P34903); assay: as above; format: cell-based; details: α3β3γ2, n = 8
T3 construct: Shanghai Genechem Co.,Ltd (γ2 plasmid); host or cells: HEK293
T3 sequence (P34903 29-492): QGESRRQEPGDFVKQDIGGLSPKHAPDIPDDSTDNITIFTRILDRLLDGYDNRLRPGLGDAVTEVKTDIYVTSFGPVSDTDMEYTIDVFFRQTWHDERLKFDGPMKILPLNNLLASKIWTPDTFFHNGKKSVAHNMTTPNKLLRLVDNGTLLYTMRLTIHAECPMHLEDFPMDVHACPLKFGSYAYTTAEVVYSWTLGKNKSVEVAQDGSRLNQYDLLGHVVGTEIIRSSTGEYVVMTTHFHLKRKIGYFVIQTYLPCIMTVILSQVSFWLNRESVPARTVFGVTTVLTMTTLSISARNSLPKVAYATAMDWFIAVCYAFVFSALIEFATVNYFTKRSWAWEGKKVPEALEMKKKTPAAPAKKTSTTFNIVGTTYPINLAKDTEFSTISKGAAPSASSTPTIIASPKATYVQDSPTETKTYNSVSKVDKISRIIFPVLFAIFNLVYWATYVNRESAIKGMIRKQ
T3 sequence (P28472 26-473): as the sequence (P28472 26-473) above
T3 sequence (P18507 40-475): as the sequence (P18507 40-475) above
Procedure: as §1, §2

[1] = system: putative excitatory neurons of brain cortex; assay: Potentiation of GABA-evoked currents in acute brain cortex slices; format: cell-based; details: Neuron; rat brain cortex slices, n = 12
PSD-95-nNOS complex = biological target: T4, PSD-95-nNOS complex (Rattus norvegicus, UniProt P29476); assay: Co-IP of PSD-95-nNOS complex levels in the spinal dorsal horn after SNL; format: in vivo; details: SNL rats, (+)-borneol 5 mg/kg/d, i.v., × 3 d
T4 construct: dorsal spinal cord tissues (L4 and L5) were lysed in 400 μl RIPA; from tissue; host or cells: rat dorsal spinal cord (L4 and L5), SNL model
T4 sequence (P29476 whole entry, one chain of several): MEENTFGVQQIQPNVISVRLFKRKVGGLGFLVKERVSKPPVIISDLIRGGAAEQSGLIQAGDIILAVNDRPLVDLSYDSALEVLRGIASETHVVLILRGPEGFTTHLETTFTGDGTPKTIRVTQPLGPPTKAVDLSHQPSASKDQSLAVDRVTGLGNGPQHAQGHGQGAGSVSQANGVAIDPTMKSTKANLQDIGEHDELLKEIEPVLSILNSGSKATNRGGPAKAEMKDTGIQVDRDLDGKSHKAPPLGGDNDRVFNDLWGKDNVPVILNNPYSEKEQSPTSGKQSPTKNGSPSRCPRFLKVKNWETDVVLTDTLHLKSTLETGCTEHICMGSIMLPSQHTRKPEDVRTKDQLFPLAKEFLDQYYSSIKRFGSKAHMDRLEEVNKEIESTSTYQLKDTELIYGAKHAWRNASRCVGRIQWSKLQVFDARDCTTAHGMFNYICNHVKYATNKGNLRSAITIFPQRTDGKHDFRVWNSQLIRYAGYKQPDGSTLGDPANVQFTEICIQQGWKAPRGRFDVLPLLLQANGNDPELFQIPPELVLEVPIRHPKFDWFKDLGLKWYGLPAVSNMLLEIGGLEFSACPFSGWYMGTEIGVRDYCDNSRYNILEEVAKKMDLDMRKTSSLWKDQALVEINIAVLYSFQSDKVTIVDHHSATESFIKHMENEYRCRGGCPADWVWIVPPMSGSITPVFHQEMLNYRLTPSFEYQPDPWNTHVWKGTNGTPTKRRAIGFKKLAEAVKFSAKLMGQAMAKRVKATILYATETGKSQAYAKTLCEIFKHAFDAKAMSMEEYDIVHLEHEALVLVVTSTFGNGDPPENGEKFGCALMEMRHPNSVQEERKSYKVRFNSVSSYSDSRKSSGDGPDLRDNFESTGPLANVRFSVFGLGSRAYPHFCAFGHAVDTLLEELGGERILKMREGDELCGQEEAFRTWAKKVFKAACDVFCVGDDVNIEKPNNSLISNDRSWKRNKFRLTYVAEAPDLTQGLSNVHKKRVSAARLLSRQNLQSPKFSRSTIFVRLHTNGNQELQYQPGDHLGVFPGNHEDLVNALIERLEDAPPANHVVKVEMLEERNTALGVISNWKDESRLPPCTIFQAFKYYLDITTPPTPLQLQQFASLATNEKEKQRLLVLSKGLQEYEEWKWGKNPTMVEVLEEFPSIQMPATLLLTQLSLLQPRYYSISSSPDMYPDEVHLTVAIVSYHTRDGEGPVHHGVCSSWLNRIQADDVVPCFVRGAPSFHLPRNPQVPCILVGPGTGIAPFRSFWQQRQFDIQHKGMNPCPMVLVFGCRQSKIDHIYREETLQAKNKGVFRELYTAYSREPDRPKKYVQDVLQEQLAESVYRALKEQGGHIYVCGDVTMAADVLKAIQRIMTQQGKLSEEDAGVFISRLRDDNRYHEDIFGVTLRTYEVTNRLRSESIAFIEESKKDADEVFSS

[2] = system: SNL-induced mechanical hyperalgesia; assay: SNL-induced mechanical hyperalgesia, paw withdrawal threshold; format: in vivo, rat; details: SNL rats, (+)-borneol 5 mg/kg/d, i.v., 11 consecutive days
Procedure: Neuropathic pain was induced by segmental spinal nerve ligation (SNL). Animals were anesthetized with isoflurane. After the loss of righting reflex, the animal was fixed in the prone position. The SNL model was prepared as described previously: a median skin incision with about 3-5 cm length in L4-S2 level of the mouse back was made, the muscles next to the vertebrae till the sixth lumbar protruding were separated, the L5/L6 joint protruding on the right side was exposed and excised, and L6 processus transversus was partially split so that the L4-L6 spinal nerves on the right side were exposed. L5 nerve was gently isolated and tightly ligated with 5-0 silk thread. The wound was closed with 4-0 silk thread suture and covered with iodine solution. After nerve ligation, animals with signs of paw clonus or autotomy were excluded from further experiments.
Osmotic minipumps (models 1004 for mouse and 2ML4 for rat; Alzet) and intrathecal cannulas (0.61 mm outer diameter and 0.28 mm inner diameter for mouse, 0.99 mm outer diameter and 0.58 mm inner diameter for rat) were filled with a solution of PBS. Cannulas were inserted into the subarachnoid space through the space between the L5 and L6 vertebrae and the tip of the catheter was implanted at the L5 spinal segmental level.
For rats, the threshold for 50% paw withdrawal (50% PWT) response to mechanical stimulus was assessed through a dynamic plantar apparatus (Ugo Basile, Italy). The 50% PWT refers to that the probability of paw withdrawal response to repeated mechanical stimulus is 50%. Rats were placed individually in a plastic cage (17 × 15 × 15 cm) with a wire mesh bottom which allowed full access to the paws. Behavioral accommodation was allowed for 15-20 min until cage exploration and major grooming activities ceased. A maximal cut-off of 50g/50s was set to prevent tissue damage. To record the PWT in response to mechanical stimulus, each rat was measured five times with a 5-min interval, and the mean value was recorded after excluding maximal and minimum values. The experimental procedures were performed in a double-blind manner.

locomotor activity = assay: Open field test, locomotor activity; format: in vivo; details: mice, (+)-borneol 45 mg/kg, i.v.
Procedure: The locomotor activity was assessed by the open field test as described previously. The apparatus consisted of a large area composed of plastic, surrounded by walls that were 100 cm high. The floor was 50 × 50 cm for mice; the overall illumination was 25 lux. Each animal was gently placed in the center of the open field, and its behavior was videotaped. The distance the animals travelled was measured in a 5-min session using ANY-maze (Stoelting Co., IL, USA). After each trial, the plate was cleaned with 70% EtOH. No stressor was applied to the animals for at least 12 h before the test.

α2 subunit of GABAARs = assay: Western blot of GABAAR subunit levels in the spinal dorsal horn; format: in vivo, rat; details: SNL rats, (+)-borneol 5 mg/kg/d, i.v., × 11 d
Procedure: (§3) Western bolt analysis was performed as described previously. Briefly, the dorsal spinal cord (L4 and L5) was dissected from sham or SNL rats and homogenized in 400μl RIPA lysis buffer containing 1 μM pepstatin, 10 μg/ml aprotinin, 10 μg/ml leupeptin, 10 μg/ml and 10 μM phenylmethylsufonyl fluoride (PMSF). After lysis for 30 min in ice, samples were centrifuged at 12,000 g for 15 min. The protein content in each supernatant fraction was determined by using Bradford's solution, and samples containing equivalent amounts of protein were applied to 10% or 15% (10% for GABA(A)α2 and α3, 15% for BDNF) acrylamide denaturing gels (SDS-PAGE). The separated proteins were transferred onto a polyvinylidene fluoride membrane. The primary antibodies were as follows: rabbit anti-GABA(A)α2 (1:500; Millipore AB5948), rabbit anti-GABA(A)α3 (1:500; Millipore AB5594), rabbit anti-BDNF (1:1000; Thermo PA1-18357, RRID:AB_1070634). Internal control was performed using rabbit anti-β-actin (1:1000; Bioss bs-0061R, RRID: AB_10855480). Appropriate horseradish peroxidase-linked secondary antibodies were used for detection by enhanced chemiluminescence (Bio-Rad).

α3 subunit of GABAARs = assay: as above; format: in vivo, rat; details: SNL rats, (+)-borneol 5 mg/kg/d, i.v., × 11 d
Procedure: as §3

BDNF = assay: Western blot of BDNF levels in the spinal dorsal horn after SNL; format: in vivo, rat; details: SNL rats, (+)-borneol 10 mg/kg, i.v., × 3 d
Procedure: as §3

α1-containing GABAAR = system: α1-containing GABAAR; parameters: method as in PMID 15763546; details: Xenopus laevis oocytes, high dose; cited from earlier work

SMILES: CC1(C)[C@@H]2CC[C@@]1(C)[C@@H](O)C2 [(+)-borneol]
- Effect on GABA-evoked currents of α1-containing GABAAR (in words) (α1β2γ2 GABAARs): no effect on GABA-evoked currents as high as 10 μM
- Emax (α2β3γ2 GABAARs): 122 ± 11%
- Emax (α3β3γ2 GABAARs): 109 ± 6.05%
- EC50 [1]: 0.4236 ± 0.0014 nM
- Emax [1]: 63.1 ± 3.4%
- PSD-95-nNOS complex level in the SDH (PSD-95-nNOS complex): increased nNOS-PSD-95 interaction in the SDH significantly
- Analgesic tolerance, mechanical hyperalgesia [2]: caused analgesic tolerance development rapidly
- Locomotor activity, distance travelled during 5 min (locomotor activity): without BZDs-associated behavioral effects
- α2 subunit of GABAARs expression in the SDH (α2 subunit of GABAARs): decreased α2 and α3 subunits of GABAARs expressions
- α3 subunit of GABAARs expression in the SDH (α3 subunit of GABAARs): decreased α2 and α3 subunits of GABAARs expressions
- SNL-induced BDNF expression in the SDH (BDNF): significantly decreased SNL-induced BDNF expression in the SDH
- Modulation of α1-containing GABAAR (α1-containing GABAAR): can positively modulate α1-containing GABAAR expressed in Xenopus laevis oocytes at high dose
